Measurements from patent US20260159474A1, “Aminoindane Compounds and Compositions and Methods of Their Therapeutic Use” (Solvonis Therapeutics Ireland Holdings Limited, priority 2021, published 2026).
Like-named read-outs stand apart in the source and are kept apart here.

What was measured:
Experiment in all cases: CYP450 inhibition, fluorescent probe substrate
Type in all cases: in vitro ADME
CYP2C9 = molecular target: T1, CYP2C9 (Homo sapiens, UniProt P11712)
T1 construct: host or cells: recombinant microsomes
Method: (§1) Methods: Recombinant human CYP450 isoenzymes were used to metabolize pro-fluorescent probe substrates to fluorescent products. IC50 values determined from the effect of test compounds on the metabolism of these probe substrates were then used to determine inhibitory potency against CYP450 isoforms. The chemical reagents included:
(§2) The test system was based on a three-step procedure with a “mix and read” format, where reaction and reading were performed at 37° C. The assays described herein measure in vitro inhibitory effects (pIC50) of compounds on the human P450 isoforms (1A2, 2B6, 2C8, 2C9, 2C19, 2D6, 3A4) expressed in recombinant microsomes. Pro-fluorescent probe substrates were metabolized to fluorescent products by the enzymes. Fluorescence was measured in kinetic mode (1 read/minutes for 10 minutes), and the fluorescence rate was calculated.
(§3) Inhibition of the fluorescent signal resulting from P450 activation indicated inhibitory activity and facilitated calculation of the compound pIC50. A quality check was included in each compound plate, wherein the signal window was monitored by performing Z′ calculations ([…] ) and the antagonist potency of internal standards was within the pIC50±2SD range. Concentration response curves (CRCs) of compounds were run on two different test occasions (n 2) by preparing serial dilutions from the same compound stock solution.
(§4) To prepare the compound plate, test compounds serial dilutions 1 to 3 were performed from a 10 mM stock solution in DMSO by Biomek FX to generate 10 point CRC with the highest concentrations in columns 3 and 13.
(§5) 100% DMSO was placed in columns 1 and 2 and used for assay low controls. CYP inhibitor (10 mM miconazole solution in DMSO) was placed in columns 23 and 24 and served as an assay high controls. 1 μL copy plates were then stamped into V-bottom drug plates at a concentration that is 200 fold the final assay concentration. The copy plates were diluted prior to the experiment with assay buffer to reach 4 times the final assay concentration (2% w/v DMSO).
(§6) A reference compound (e.g., miconazole) was included in each compound plate in row A, column 3 and 13. The reference compound was diluted and stamped together with test compounds. The final concentrations of the 10 point CRCs of test compounds in the assay plate were 5.00E-05; 1.67E-05; 5.56E-06; 1.85E-06; 6.17E-07; 2.06E-07; 6.86E-08; 2.29E-08; 7.62E-09 and 2.54E-09, respectively. All solutions were prepared immediately before the assay.
Microsomes were added to the buffer prior to the substrate addition. The solution was carefully mixed without vortexing. 30 μL/well of the mixture was then transferred to the assay plate (384-well black plate) using a 16-channel pipette. For each P450 isoformn, a separate plate was prepared and labeled with a barcode. For fluorescence measurement, 10 μL/well of the test compounds were transferred from the compound plate to the assay plate using Biomek FX and the appropriate protocol. The assay plate was then incubated at 37° C. for 10 minutes on a shaker to allow for the interaction between compounds and enzymes.
10 μL/well of the cofactor was then added to the assay plate using the Multidrop before placing the assay plate in the plate reader EnVision to measure fluorescence. The overall final DMSO concentration for the assay was 0.5%. Plates were read every minute for 10 minutes, according to a P450 isoform specific protocol, as shown below.
(§7) Regarding data analysis, inhibition is expressed as a percentage. […] Curve fitting and pIC50 estimations are carried out using a four-parameter logistic model in Morphit.

CYP2B6 = molecular target: T2, CYP2B6 (Homo sapiens, UniProt P20813)
T2 construct: purchased Life Technologies P3028; host or cells: Baculosomes
T2 sequence (P20813 1-491): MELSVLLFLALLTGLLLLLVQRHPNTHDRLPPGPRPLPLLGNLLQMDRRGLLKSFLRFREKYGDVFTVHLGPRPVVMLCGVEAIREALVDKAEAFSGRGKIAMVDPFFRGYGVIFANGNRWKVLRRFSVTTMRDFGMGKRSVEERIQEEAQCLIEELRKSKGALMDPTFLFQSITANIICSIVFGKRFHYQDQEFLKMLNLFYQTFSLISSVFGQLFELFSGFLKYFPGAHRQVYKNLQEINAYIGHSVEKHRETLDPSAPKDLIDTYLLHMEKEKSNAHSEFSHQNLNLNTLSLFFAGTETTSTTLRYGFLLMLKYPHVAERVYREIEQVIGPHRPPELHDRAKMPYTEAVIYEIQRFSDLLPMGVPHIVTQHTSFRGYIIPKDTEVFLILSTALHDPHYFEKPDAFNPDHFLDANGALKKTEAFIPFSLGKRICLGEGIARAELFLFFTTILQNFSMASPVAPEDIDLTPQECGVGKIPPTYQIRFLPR
Method: as §1, §2, §3, §4, §5, §6
(§8) The CYP3A4 and CYP2C8 were assayed using the Vivid CYP3A4 Baculosomes, CYP2C8 Baculosomes and Vivid DBOMF Substrate (Life Technologies, cat. P2377, PV6138 and P2974 respectively), while 2B6 is tested by Vivid CYP2B6 Baculosomes and Vivid BOMCC Substrate (Life Technologies, cat. P3028 and P2975). Test compounds were prepared as specified above.
(§9) The assay plate was prepared by preparing pre-mix by diluting P450 Baculosomes Plus Reagent and Vivid Regeneration System in 1× Vivid CYP450 Reaction Buffer (Potassium Phosphate Buffer, 100 mM, pH 8.0). Briefly, 8 μL/ml of P450 Baculosomes Plus Reagent and 16 μL/ml of Vivid Regeneration System were added to achieve the appropriate final concentrations and then mixed by inversion. 30 μL of pre-mix were dispensed into each well of a black, 384-well plate.
(§10) Next, 10 μL/well from the compound plate was added and incubated for 10 minutes at 37° C. on a plate shaker, while a mixture of Vivid Substrate and Vivid NADP+ in Vivid CYP450 Reaction Buffer was prepared. The reaction was initiated by adding 10 μL/well of the Vivid Substrate and NADP+ mixture, before transferring the plate into the fluorescent plate reader (immediately, within 2 minutes), and fluorescence was monitored every minute for 10 minutes according to the specific protocol.
as §7

CYP2C8 = molecular target: T3, CYP2C8 (Homo sapiens, UniProt P10632)
T3 construct: purchased Life Technologies PV6138; host or cells: Baculosomes
T3 sequence (P10632 1-490): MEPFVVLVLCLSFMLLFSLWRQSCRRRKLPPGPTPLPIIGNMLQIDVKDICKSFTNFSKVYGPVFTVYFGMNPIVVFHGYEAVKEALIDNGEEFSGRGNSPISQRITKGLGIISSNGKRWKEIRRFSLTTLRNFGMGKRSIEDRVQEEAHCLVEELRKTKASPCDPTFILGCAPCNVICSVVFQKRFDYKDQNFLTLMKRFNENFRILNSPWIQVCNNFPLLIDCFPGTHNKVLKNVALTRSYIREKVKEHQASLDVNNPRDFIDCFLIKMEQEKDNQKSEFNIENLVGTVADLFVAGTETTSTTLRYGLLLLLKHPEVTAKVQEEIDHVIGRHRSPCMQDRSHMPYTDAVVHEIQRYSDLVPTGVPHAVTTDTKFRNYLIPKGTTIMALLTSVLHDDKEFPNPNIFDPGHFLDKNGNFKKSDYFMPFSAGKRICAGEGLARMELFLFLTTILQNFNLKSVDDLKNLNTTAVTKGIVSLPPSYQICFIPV
Method: as §1, §2, §3, §4, §5, §6, §8, §9, §10, §7

[1] = recombinant human isoenzyme, n=2, read-out: Inhibition of CYP2C9, IC50
[2] = recombinant human isoenzyme, n=2, read-out: Inhibition of CYP2B6, IC50
[3] = recombinant human isoenzyme, n=2, read-out: Inhibition of CYP2C8, IC50

T1 sequence (P11712 whole entry): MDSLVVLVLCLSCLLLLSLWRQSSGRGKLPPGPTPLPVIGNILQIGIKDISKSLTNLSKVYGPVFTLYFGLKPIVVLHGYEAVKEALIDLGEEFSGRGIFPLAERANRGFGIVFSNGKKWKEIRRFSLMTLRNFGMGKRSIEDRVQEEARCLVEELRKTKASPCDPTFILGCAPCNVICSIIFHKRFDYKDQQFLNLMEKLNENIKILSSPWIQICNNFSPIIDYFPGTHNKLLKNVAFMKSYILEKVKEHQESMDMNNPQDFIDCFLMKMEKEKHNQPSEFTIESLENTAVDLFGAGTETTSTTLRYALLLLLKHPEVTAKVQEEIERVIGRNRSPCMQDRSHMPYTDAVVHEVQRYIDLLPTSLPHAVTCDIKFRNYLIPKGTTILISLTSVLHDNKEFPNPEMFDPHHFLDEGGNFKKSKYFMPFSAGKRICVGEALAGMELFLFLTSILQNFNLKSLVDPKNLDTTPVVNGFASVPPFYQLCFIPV

COC(=O)c1cc2c(cc1OC)CC(N)C2 (stereo not shown) [CMP-401]
IC50 (CYP2C9; [1]): > 50 µM | IC50 (CYP2B6; [2]): > 50 µM | IC50 (CYP2C8; [3]): > 50 µM

COC(=O)COc1ccc2c(c1)CC(N)C2 (stereo not shown) [CMP-402]
IC50 (CYP2C9; [1]): > 50 µM | IC50 (CYP2B6; [2]): > 50 µM | IC50 (CYP2C8; [3]): > 50 µM

COC(=O)c1ccc2c(c1)CC(N)C2 (stereo not shown) [CMP-405, 2-aminoindane-5-methylcarboxylate]
IC50 (CYP2C9; [1]): > 50 µM | IC50 (CYP2B6; [2]): > 50 µM | IC50 (CYP2C8; [3]): > 50 µM

CNC(C)Cc1ccc2c(c1)OCO2 (stereo not shown) [MDMA]
IC50 (CYP2C9; [1]): > 50 µM | IC50 (CYP2B6; [2]): > 50 µM | IC50 (CYP2C8; [3]): > 50 µM

COc1ccc2c(c1)CC(N)C2 (stereo not shown) [MEAI, 5-methoxy-2-aminoindane]
IC50 (CYP2C9): > 50 µM | IC50 (CYP2B6): > 50 µM | IC50 (CYP2C8): > 50 µM

COc1cc2c(cc1C)CC(N)C2 (stereo not shown) [MMAI, 5-methoxy-6-methyl-2-aminoindane]
IC50 (CYP2C9): 35.7 µM | Inhibition of CYP2C9, IC50 (CYP2C9; recombinant human isoenzyme, n=2): found to inhibit CYP2C9 | IC50 (CYP2B6): > 50 µM | IC50 (CYP2C8): > 50 µM
